The target of the assay is HSD17B13 (Homo sapiens (Human), UniProt Q7Z5P4). The assay is described as follows: HSD17B13 enzymatic inhibition assay (150 nM or 50 nM HSD17B13). It counts as biochemical. The settings on record: 50 nM HSD17B13; read-out: Inhibition of 50 nM of HSD17B13 IC50.
Sequence of HSD17B13 (Q7Z5P4 other isoform, or with tags, fused parts or gaps): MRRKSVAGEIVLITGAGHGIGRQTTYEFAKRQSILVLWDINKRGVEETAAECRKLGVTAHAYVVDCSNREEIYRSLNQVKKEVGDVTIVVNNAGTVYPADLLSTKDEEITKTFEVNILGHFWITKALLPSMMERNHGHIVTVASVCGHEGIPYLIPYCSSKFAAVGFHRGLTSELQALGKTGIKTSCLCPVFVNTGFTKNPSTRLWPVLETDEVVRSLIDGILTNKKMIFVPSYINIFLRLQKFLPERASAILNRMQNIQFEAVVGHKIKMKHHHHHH

As to `O=C(NC1CCCc2c(-c3ccccc3)cccc21)c1ccc(C(F)(F)F)[nH]c1=O` (stereo not shown) [Compound 348, 2-oxo-N-(5-phenyl-1,2,3,4-tetrahydronaphthalen-1-yl)-6-(trifluoromethyl)-1,2-dihydropyridine-3-carboxamide], the IC50 (commonly the concentration needed to halve the response being measured) came out at 9.84 µM. The result for `COc1ccc2c(c1)CCC(OC)C2NC(=O)c1ccc(C(F)(F)F)[nH]c1=O` (stereo not shown) [Compound 349, N-(2,6-dimethoxy-1,2,3,4-tetrahydronaphthalen-1-yl)-2-oxo-6-(trifluoromethyl)-1,2-dihydropyridine-3-carboxamide] reads 1.41 µM; that for `COC1CCc2cc(C)ccc2C1NC(=O)c1ccc(C(F)(F)F)[nH]c1=O` (stereo not shown) [Compound 350, N-(2-methoxy-6-methyl-1,2,3,4-tetrahydronaphthalen-1-yl)-2-oxo-6-(trifluoromethyl)-1,2-dihydropyridine-3-carboxamide], 0.36 µM; that for `Cc1ccc2c(c1)OC(C)C2NC(=O)c1ccc(C(F)(F)F)[nH]c1=O` (stereo not shown) [Compound 356, N-(2,6-dimethyl-2,3-dihydrobenzofuran-3-yl)-2-oxo-6-(trifluoromethyl)-1,2-dihydropyridine-3-carboxamide], 2.16 µM.

In the case of `CCC[C@H]1Oc2cc(C)ccc2[C@H]1NC(=O)c1ccc(C(F)(F)F)[nH]c1=O` [Compound 357, N-((2R,3R)-6-methyl-2-propyl-2,3-dihydrobenzofuran-3-yl)-2-oxo-6-(trifluoromethyl)-1,2-dihydropyridine-3-carboxamide], the IC50 came out at 1.18 µM. The result for `CC[C@@H]1Oc2cc(C)ccc2[C@@H]1NC(=O)c1ccc(C(F)(F)F)[nH]c1=O` [Compound 359, N-((2S,3S)-2-ethyl-6-methyl-2,3-dihydrobenzofuran-3-yl)-2-oxo-6-(trifluoromethyl)-1,2-dihydropyridine-3-carboxamide] reads 2.15 µM. As to `Cc1ccc2c(c1)C(NC(=O)c1ccc(C(F)(F)F)[nH]c1=O)C(C)O2` (stereo not shown) [Compound 363, N-(2,5-dimethyl-2,3-dihydrobenzofuran-3-yl)-2-oxo-6-(trifluoromethyl)-1,2-dihydropyridine-3-carboxamide], the IC50 turned out to be 2.47 µM. With `CC[C@@H]1C[C@@H](NC(=O)c2ccc(C(F)(F)F)[nH]c2=O)c2cc(C)ccc2N1` [Compound 364, N-((2R,4R)-2-ethyl-6-methyl-1,2,3,4-tetrahydroquinolin-4-yl)-2-oxo-6-(trifluoromethyl)-1,2-dihydropyridine-3-carboxamide], the IC50 is 0.6 µM. `CC[C@H]1C[C@@H](NC(=O)c2ccc(C(F)(F)F)[nH]c2=O)c2cc(C)ccc2N1` [Compound 365, N-((2S,4R)-2-ethyl-6-methyl-1,2,3,4-tetrahydroquinolin-4-yl)-2-oxo-6-(trifluoromethyl)-1,2-dihydropyridine-3-carboxamide]: the IC50 amounted to 0.16 µM. Next, `CC[C@@H]1C[C@@H](NC(=O)c2ccc(C(F)(F)F)[nH]c2=O)c2ccc(C)cc2N1` [Compound 367, N-((2R,4R)-2-ethyl-7-methyl-1,2,3,4-tetrahydroquinolin-4-yl)-2-oxo-6-(trifluoromethyl)-1,2-dihydropyridine-3-carboxamide]: 0.38 µM; `Cc1ccc2c(c1)[C@H](NC(=O)c1ccc(C(F)(F)F)[nH]c1=O)C[C@H](C)N2` [Compound 371, N-((2S,4R)-2,6-dimethyl-1,2,3,4-tetrahydroquinolin-4-yl)-2-oxo-6-(trifluoromethyl)-1,2-dihydropyridine-3-carboxamide]: 1.42 µM. Regarding `CCN1Cc2cc(C)ccc2C(NC(=O)c2ccc(C(F)(F)F)[nH]c2=O)C1=O` (stereo not shown) [Compound 373, N-(2-ethyl-7-methyl-3-oxo-1,2,3,4-tetrahydroisoquinolin-4-yl)-2-oxo-6-(trifluoromethyl)-1,2-dihydropyridine-3-carboxamide], the IC50 was 1.73 µM. The result for `Cc1ccc2c(c1)CNC(=O)C2NC(=O)c1ccc(C(F)(F)F)[nH]c1=O` (stereo not shown) [Compound 374, N-(7-methyl-3-oxo-1,2,3,4-tetrahydroisoquinolin-4-yl)-2-oxo-6-(trifluoromethyl)-1,2-dihydropyridine-3-carboxamide] reads 2.49 µM; that for `Cc1ccc2c(c1)CN(C)C(=O)C2NC(=O)c1ccc(C(F)(F)F)[nH]c1=O` (stereo not shown) [Compound 375, N-(2,7-dimethyl-3-oxo-1,2,3,4-tetrahydroisoquinolin-4-yl)-2-oxo-6-(trifluoromethyl)-1,2-dihydropyridine-3-carboxamide], 2.4 µM; that for `Cc1ccc2c(c1)c(NC(=O)c1ccc(C(F)(F)F)[nH]c1=O)cn2C` [Compound 376, N-(1,5-dimethyl-1H-indol-3-yl)-2-oxo-6-(trifluoromethyl)-1,2-dihydropyridine-3-carboxamide], 2.84 µM. The result for `Cc1ccc2[nH]cc(NC(=O)c3ccc(C(F)(F)F)[nH]c3=O)c2c1` [Compound 377, N-(5-methyl-1H-indol-3-yl)-2-oxo-6-(trifluoromethyl)-1,2-dihydropyridine-3-carboxamide] reads 7.77 µM; that for `Cc1ccc2[nH]c(C)c(NC(=O)c3ccc(C(F)(F)F)[nH]c3=O)c2c1` [Compound 378, N-(2,5-dimethyl-1H-indol-3-yl)-2-oxo-6-(trifluoromethyl)-1,2-dihydropyridine-3-carboxamide], 0.76 µM. Next, `Cc1ccc2c(NC(=O)c3ccc(C(F)(F)F)[nH]c3=O)cn(C)c2c1` [Compound 379, N-(1,6-dimethyl-1H-indol-3-yl)-2-oxo-6-(trifluoromethyl)-1,2-dihydropyridine-3-carboxamide]: 4.82 µM; `Cc1ccc2c(NC(=O)c3ccc(C(F)(F)F)[nH]c3=O)coc2c1` [Compound 380, N-(6-methylbenzofuran-3-yl)-2-oxo-6-(trifluoromethyl)-1,2-dihydropyridine-3-carboxamide]: above 10 µM; `CCCC1CC(NC(=O)c2ccc(C(F)(F)F)[nH]c2=O)c2ccc(C)cc2S1` (stereo not shown) [Compound 381, N-(7-methyl-2-propylthiochroman-4-yl)-2-oxo-6-(trifluoromethyl)-1,2-dihydropyridine-3-carboxamide]: 0.13 µM.

As to `CCCC1CC(NC(=O)c2ccc(C(F)(F)F)[nH]c2=O)c2cc(C)ccc2S1` (stereo not shown) [Compound 382, N-(6-methyl-2-propylthiochroman-4-yl)-2-oxo-6-(trifluoromethyl)-1,2-dihydropyridine-3-carboxamide], the IC50 was 0.13 µM.

`Cc1ccc2c(c1)C(NC(=O)c1ccc(C(F)(F)F)[nH]c1=O)CC(C)S2` (stereo not shown) [Compound 386, N-(2,6-dimethylthiochroman-4-yl)-2-oxo-6-(trifluoromethyl)-1,2-dihydropyridine-3-carboxamide]: the concentration for half-maximal inhibition (IC50) worked out at 0.17 µM.

In the case of `COc1ccc2c(c1)CC(C)CC2NC(=O)c1ccc(C(F)(F)F)[nH]c1=O` (stereo not shown) [Compound 389, N-(6-methoxy-3-methyl-1,2,3,4-tetrahydronaphthalen-1-yl)-2-oxo-6-(trifluoromethyl)-1,2-dihydropyridine-3-carboxamide], the IC50 was 0.58 µM.

Take `Cc1ccc2c(c1)CC(C)CC2NC(=O)c1ccc(C(F)(F)F)[nH]c1=O` (stereo not shown) [Compound 391, N-(3,6-dimethyl-1,2,3,4-tetrahydronaphthalen-1-yl)-2-oxo-6-(trifluoromethyl)-1,2-dihydropyridine-3-carboxamide]: the IC50 was 0.05 µM.

As to `CCCC1Cc2cc(OC)ccc2C(NC(=O)c2ccc(C(F)(F)F)[nH]c2=O)C1` (stereo not shown) [Compound 392, N-(6-methoxy-3-propyl-1,2,3,4-tetrahydronaphthalen-1-yl)-2-oxo-6-(trifluoromethyl)-1,2-dihydropyridine-3-carboxamide], the IC50 came to 0.08 µM.

With `Cc1ccc2c(c1)C(NC(=O)c1ccc(C(F)(F)F)[nH]c1=O)CS2` (stereo not shown) [Compound 393, N-(5-methyl-2,3-dihydrobenzo[b]thiophen-3-yl)-2-oxo-6-(trifluoromethyl)-1,2-dihydropyridine-3-carboxamide], the concentration for half-maximal inhibition (IC50) amounted to 1.23 µM. Take `Cc1ccc2c(c1)C(NC(=O)c1ccc(C(F)(F)F)[nH]c1=O)CC(C)O2` (stereo not shown) [Compound 394, N-(2,6-dimethylchroman-4-yl)-2-oxo-6-(trifluoromethyl)-1,2-dihydropyridine-3-carboxamide]: the IC50 was 0.26 µM. The result for `Cc1ccc2c(c1)OCC2NC(=O)c1ccc(C(F)(F)F)[nH]c1=O` (stereo not shown) [Compound 395, N-(6-methyl-2,3-dihydrobenzofuran-3-yl)-2-oxo-6-(trifluoromethyl)-1,2-dihydropyridine-3-carboxamide] reads 9.17 µM; that for `Cc1ccc2c(c1)SCCC2NC(=O)c1ccc(C(F)(F)F)[nH]c1=O` (stereo not shown) [Compound 396, N-(7-methylthiochroman-4-yl)-2-oxo-6-(trifluoromethyl)-1H-pyridine-3-carboxamide], 0.26 µM; that for `Cc1ccc([C@H](NC(=O)c2ccc(C(F)(F)F)[nH]c2=O)[C@@H]2CCCOC2)cc1` [Compound 397, 2-oxo-N—((R)—((S)-tetrahydro-2H-pyran-3-yl)(p-tolyl)methyl)-6-(trifluoromethyl)-1,2-dihydropyridine-3-carboxamide], 2.97 µM. Take `Cc1ccc([C@H](NC(=O)c2ccc(C(F)(F)F)[nH]c2=O)[C@H]2CCCOC2)cc1` [Compound 398, 2-oxo-N—((R)—((R)-tetrahydro-2H-pyran-3-yl)(p-tolyl)methyl)-6-(trifluoromethyl)-1,2-dihydropyridine-3-carboxamide]: the concentration for half-maximal inhibition (IC50) amounted to 6.15 µM. The result for `CC1CCC(C(NC(=O)c2ccc(C(F)(F)F)[nH]c2=O)c2ccccc2)CC1` (stereo not shown) [Compound 399, N-((4-methylcyclohexyl)(phenyl)methyl)-2-oxo-6-(trifluoromethyl)-1,2-dihydropyridine-3-carboxamide] reads 0.3 µM. Consider `Cc1ccc(C(NC(=O)c2ccc(C(F)(F)F)[nH]c2=O)C2CCC(C)CC2)cc1` (stereo not shown) [Compound 400, N-((4-methylcyclohexyl)(p-tolyl)methyl)-2-oxo-6-(trifluoromethyl)-1,2-dihydropyridine-3-carboxamide], for which the IC50 amounted to 0.23 µM.

Consider `CCCC(NC(=O)c1ccc(C(F)(F)F)[nH]c1=O)c1ccc(C)cc1` (stereo not shown) [Compound 402, 2-oxo-N-(1-(p-tolyl)butyl)-6-(trifluoromethyl)-1,2-dihydropyridine-3-carboxamide], for which the IC50 was found to be 0.36 µM.

(Values after US11957687B2 (REGENERON PHARMACEUTICALS, INC., priority 2019, dated 2024).)
